The source of these data is US20260317320A1, “C5AR1 ANTAGONISTS AND USES THEREOF” (Vanqua Bio, Inc., priority 2022, published 2026).

Where two headings read alike, the source gives them in different places.

Test [1] addresses T1, complement C5a receptor 1 (C5aR1) (Homo sapiens, UniProt P21730).
T1 construct: β-galactosidase fragment (PathHunter enzyme complementation); host or cells: CHO-K1 (PathHunter CHO-K1 C5aR1 β-arrestin cell line)
T1 sequence (P21730 1-350): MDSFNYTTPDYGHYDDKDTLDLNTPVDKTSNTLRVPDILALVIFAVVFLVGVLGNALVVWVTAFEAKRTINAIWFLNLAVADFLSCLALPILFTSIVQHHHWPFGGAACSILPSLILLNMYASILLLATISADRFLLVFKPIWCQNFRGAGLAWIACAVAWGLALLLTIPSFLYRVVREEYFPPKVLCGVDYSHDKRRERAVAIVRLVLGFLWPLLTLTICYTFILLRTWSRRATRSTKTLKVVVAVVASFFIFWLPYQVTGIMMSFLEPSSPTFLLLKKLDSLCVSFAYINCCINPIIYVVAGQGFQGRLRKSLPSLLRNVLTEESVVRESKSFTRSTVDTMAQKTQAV
Nature of the test: β-arrestin recruitment via C5aR1 activation in live CHO-K1 cells (PathHunter), agonist mode. The test is classed as cell-based. The method, boiled down:
(§1)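 β-arrestin recruitment to C5aR1 in CHO-K1 cells is detected by enzyme-fragment complementation. Antagonism is measured against recombinant hC5a at its EC90; agonism is measured with compound alone. Potencies are grouped into IC50 categories.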
(In general: Arrestin recruitment assays detect the binding of arrestin to an activated receptor.)

Test [2] has as its target T1, complement C5a receptor 1 (C5aR1). In words: β-arrestin recruitment via C5aR1 activation in live CHO-K1 cells (PathHunter), antagonist mode. The test is classed as cell-based. Conditions: antagonist mode; recombinant hC5a (EC90) as competing natural agonist; live CHO-K1 cells; read-out: [Antagonist] B-arrestin2 recruitment: Average IC50; call rule not given here. The method, boiled down: as §1

As a reminder, the IC50 is the concentration at which inhibition is half-maximal. Consider `Cc1cnc2cc(C3CCN(c4c(C)cccc4F)CC3)c(=O)n([C@@H]3CCC(F)(F)c4nccnc43)c2n1` [149A, (R)-5-(8,8-Difluoro-5,6,7,8-tetrahydroquinoxalin-5-yl)-7-(1-(2-fluoro-6-methylphenyl)piperidin-4-yl)-3-methylpyrido[2,3-b]pyrazin-6(5H)-one], for which the “[Agonist] B-arrestin2 recruitment: Average EC50 (nM)” value (“[Agonist] B-arrestin2 recruitment” for short) in test [1] is on record as “Non-Active”. In addition, the 50% inhibitory concentration (IC50) in test [2] lay in the range of 5 to 100 µM.

On to `Cc1cnc2cc([C@@H]3CC[C@@H](c4c(C)cccc4F)C3)c(=O)n(Cc3nccnc3C(F)(F)F)c2n1` [197D, 7-((1R,3R)-3-(2-Fluoro-6-methylphenyl)cyclopentyl)-3-methyl-5-((3-(trifluoromethyl)pyrazin-2-yl)methyl)pyrido[2,3-b]pyrazin-6(5H)-one], for which, in test [1], the “[Agonist] B-arrestin2 recruitment” value is “Non-Active”. Further, in test [2], the IC50 was < 0.5 µM.

On to `Cc1cccc(F)c1N1CCC(c2cc3nccnc3n([C@@H]3CCCc4cccnc43)c2=O)CC1` [40a, (R)-7-(1-(2-Fluoro-6-methylphenyl)piperidin-4-yl)-5-(5,6,7,8-tetrahydroquinolin-8-yl)pyrido[2,3-b]pyrazin-6(5H)-one], for which the “[Agonist] B-arrestin2 recruitment” value in test [1] was “Non-Active”. The IC50 in test [2] fell in the range of 5 to 100 µM.

For the molecule `Cc1ccc2cc([C@H]3C[C@H](c4c(C)cccc4F)C3)c(=O)n(Cc3ncccc3C(F)(F)F)c2n1` [243A, 3-((1r,3r)-3-(2-Fluoro-6-methylphenyl)cyclobutyl)-7-methyl-1-((3-(trifluoromethyl)pyridin-2-yl)methyl)-1,8-naphthyridin-2(1H)-one], in test [1], the “[Agonist] B-arrestin2 recruitment” value is “Non-Active”. Further, in test [2], the IC50 is < 0.5 µM.

For `COc1ccnc(F)c1[C@H]1CC[C@H](c2cc3ncc(C)nc3n(Cc3ncccc3C(F)(F)F)c2=O)CC1` [compound 189, 7-((1r,4r)-4-(2-Fluoro-4-methoxypyridin-3-yl)cyclohexyl)-3-methyl-5-((3-(trifluoromethyl)pyridin-2-yl)methyl)pyrido[2,3-b]pyrazin-6(5H)-one], the “[Agonist] B-arrestin2 recruitment” value in test [1] (at 10 μM) was “Non-Active at 10 μM”. Moreover, the IC50 in test [2] was < 0.5 µM.

Regarding `Cc1cnc2cc([C@H]3CC[C@H](c4c(C)cccc4F)C3)c(=O)n(Cc3nccnc3C(F)(F)F)c2n1` [197B, 7-((1S,3S)-3-(2-Fluoro-6-methylphenyl)cyclopentyl)-3-methyl-5-((3-(trifluoromethyl)pyrazin-2-yl)methyl)pyrido[2,3-b]pyrazin-6(5H)-one], the “[Agonist] B-arrestin2 recruitment” value in test [1] (at 10 μM) is “Non-Active at 10 μM”. Further, the IC50 in test [2] was in the range of 0.5 to 5 µM.

Regarding `Cc1cnc2cc([C@@H]3CC[C@@H](c4c(C)cccc4F)C3)c(=O)n(Cc3nccnc3C)c2n1` [172D, 7-((1R,3R)-3-(2-Fluoro-6-methylphenyl)cyclopentyl)-3-methyl-5-((3-methylpyrazin-2-yl)methyl)pyrido[2,3-b]pyrazin-6(5H)-one], the “[Agonist] B-arrestin2 recruitment” value in test [1] (at 10 μM) is on record as “Non-Active at 10 μM”. Also, the IC50 in test [2] is 5 to 100 µM.

In the case of `Cc1ccc2cc([C@H]3CC[C@H](c4c(C)cccc4F)CC3)c(=O)n(Cc3nccnc3C)c2n1` [compound 206, 3-((1r,4r)-4-(2-fluoro-6-methylphenyl)cyclohexyl)-7-methyl-1-((3-methylpyrazin-2-yl)methyl)-1,8-naphthyridin-2(1H)-one], the “[Agonist] B-arrestin2 recruitment” value in test [1] (at 10 μM) is on record as “Non-Active at 10 μM”. Also, in test [2], the IC50 lay within 0.5 to 5 µM.

Take `Cc1cnc2cc(C3CCN(c4nccnc4C)CC3)c(=O)n(Cc3ncccc3C(F)(F)F)c2n1` [compound 151, 3-Methyl-7-(1-(3-methylpyrazin-2-yl)piperidin-4-yl)-5-((3-(trifluoromethyl)pyridin-2-yl)methyl)pyrido[2,3-b]pyrazin-6(5H)-one]: the “[Agonist] B-arrestin2 recruitment” value in test [1] (at 10 μM) is listed as “Non-Active at 10 μM”. The IC50 in test [2] lay in the range of 0.5 to 5 µM.
